Measurements as given in US11116212B2, “Carbonyl containing compounds for controlling and repelling Cimicidae populations” (SemiosBio Technologies Inc., priority 2011, dated 2021).
Read-outs that look alike come from different tables or passages of the source. Marks after values point to notes of the source that are not given here.

How the values were obtained:
Assay type in all cases: in vivo
[1] = system: bed bugs, Cimex lectularius; assay: Bed bug repellency bioassay, glass tube olfactometer arena; conditions: for pest or weed control at 25 % strength / pest or weed control at 5 % strength / pest or weed control at 1 %: Cimex lectularius; for % R (Overall Average): Example 2, single compound at 5% (w/w); for % Repellency, At least One Average >50%: best average over 3 replicates for a single time period; for pest or weed control at 1 %: 10 uL, 1% v/v in hexane
Method: (§1) Per individual bioassay, 10 adult or late instar nymph bed bugs, Cimex lectularius, of mixed sex. Bed bugs sourced from wild, field populations and tested within 2 weeks of capture. Subjects were tested one time, only.
(ii) Olfactometer consisting of a glass tube. Tube ends were plugged to prevent egress of test subjects. Test substrates were placed at opposite ends of the tube. Tube Olfactometer includes a port in the centre for introduction of test subjects. Dimensions of the tube were 15.2 mm in diameter by 304.8 mm long.
Compounds were either purchased from commercial sources or synthesized using conventional synthetic organic chemistry techniques (see, for example, Examples 5 to 7). Some compounds (014, 058 and 080) were tested in duplicate (one version from commercial sources and one synthesized) and the best performance is reported in the Tables below. Of the tested compounds reported in the Tables below, the following compounds were synthesized: 006, 010, 017, 018, 040, 041 to 043, 045, 046, 048, 049, 058, 067 to 075, 079, 080 to 082, 089 and 090.
Test compounds consisted of a control and treatment. The treatment consisted of a test compound mixed as a percentage w/w in a suitable solvent. The test compound solvent itself was used as a control. Solvents used were hexane, hexane:methanol, or dichloromethane:methanol.
(i) Gauze cut to a standard size and folded upon itself to provide harbourage for test subjects.
(iii) Absorbent polymer “aroma” beads that were given sufficient time to fully absorb test compounds and control solvents.
In the case of gauze and filter paper substrates, control solvents and test mixtures of known concentrations and volumes were dispensed directly onto substrates using a pipette. For polymer beads, beads were mixed w/w with solvent or test compound in a small glass jar. The jars were occasionally agitated to facilitate soaking of the beads.
(§2) Immediately after the substrates were infused with test compounds and control solvents, test subjects were introduced to the centre of the selected observation arena. […] Only subjects that were in close contact with the treatment or control substrates were recorded. Subjects elsewhere in the arena were not included in repellency calculations. Percentage repellency was calculated based on a modification of Abbott's formula to account for negative repellency (attraction). Specifically: IF(C>=T,(C−T)/C*100,(T−C)/T*−100)
(§3) where C is number of test subjects in contact with control substrate and T is number of test subjects in contact with treatment substrate.
All average repellency results reported in the table are based on 3 replicates for each reported trial, with each trial involving at least 3 observation periods. The observation periods were short-term (30 min), medium-term (1-2 hours), and long-term (24-48 hours). The “overall average” reported in the table represents the average for 3 replicates for 3 observation periods. […]
To determine whether compounds could be combined in the repellent compositions, compounds 14 and 35 were each tested at a concentration of 5% (w/w), and as a combination comprising each compound at a concentration of 2.5% (w/w). The formulations were tested as described in Example 1 using the olfactometer configuration.

[2] = system: bed bugs, Cimex lectularius; assay: Bed bug repellency bioassay, box arena (formulations of compound 35)
Method: as §1
(iii) Box arenas consisted of covered plastic “Rubbermaid” box where the cover was modified to fit a mesh screen to allow movement of air between the test arena interior and outside. Test substrates were placed at opposite ends of the box arena. Dimensions of the box were 304.8 mm long by 200 mm wide by 80 mm in depth.
as §2, §3
Compound 35 was formulated as a spray formulation in which the compound was dissolved in isopropyl alcohol (IPA) at concentrations of 1%, 2.5% and 5%.
In addition, compound 35 was tested on plastic slow-release beads. The beads were cured with either: 1) 20% (w/w) neat compound 35, or 2) 20% (w/w) of a 1:1 mixture of compound 35 and wintergreen oil (methyl salicylate).
The formulations were tested as described in Example 1 using the box configuration.

[3] = system: bed bugs, Cimex lectularius; assay: Bed bug repellency bioassay, Petri dish arena; conditions: filter paper, 100 uL, 1% v/v in hexane, average of 3 replicates x 3 observation periods
Excerpt: (i) Petri Dish arenas consisted of a standard plastic, covered Petri Dish where test substrates were placed at opposite sides of the dish. Dimensions of the dish were 101.6 mm in diameter by 25.4 mm in depth.
(ii) Filter paper of standard size and folded as per (i).
In the case of gauze and filter paper substrates, control solvents and test mixtures of known concentrations and volumes were dispensed directly onto substrates using a pipette. […]
Immediately after the substrates were infused with test compounds and control solvents, test subjects were introduced to the centre of the selected observation arena. […] Only subjects that were in close contact with the treatment or control substrates were recorded. […] Percentage repellency was calculated based on a modification of Abbott's formula to account for negative repellency (attraction). […]

[4] = beads, 20 uL, 25% w/w in hexane, average of 3 replicates x 3 observation periods, read-out: % Repellency (% R), Overall Average
[5] = gauze, 50 uL, 5% w/v in hexane, average of 3 replicates x 3 observation periods, read-out: % Repellency (% R), Overall Average
[6] = observation period T1, gauze, 50 uL, 5% w/v in hexane, read-out: % Repellency T1 (average of 3 repetitions)
[7] = observation period T2, gauze, 50 uL, 5% w/v in hexane, read-out: % Repellency T2 (average of 3 repetitions)
[8] = observation period T3, gauze, 50 uL, 5% w/v in hexane, read-out: % Repellency T3 (average of 3 repetitions)
[9] = gauze, average of 3 replicates x 3 observation periods, read-out: % Repellency (% R), Overall Average

How did the pest or weed control at 25 % strength [1, 4] turn out when `CCC(=O)OCc1ccco1` [Compound 035, Furfuryl propionate] was run?
Its pest or weed control at 25 % strength is greater than 80%.

What about the “% R (Overall Average)” value [1] of the same compound?
The value was 95%.

And the “% R (Overall Average)” value ([2]; IPA spray, 1% (w/w) compound 35 in isopropyl alcohol)?
Its value is 92%.

What about the “% R (Overall Average)” value ([2]; IPA spray, 2.5% (w/w) compound 35 in isopropyl alcohol) of the same compound?
The value was 94%.

And the “% R (Overall Average)” value ([2]; IPA spray, 5% (w/w) compound 35 in isopropyl alcohol)?
The value was 100%.

What about the “repellency of formulations (in words)” value ([2]; both formulation formats (IPA spray, plastic beads), all concentrations tested) of the same compound?
The value was “excellent repellency”.

What about the “% R (Overall Average)” value ([2]; plastic slow-release beads cured with 20% (w/w) neat compound 35) of the same compound?
The value was 100%.

And the “% R (Overall Average)” value ([2]; plastic slow-release beads, 10% compound 35 + 10% wintergreen oil (methyl salicylate))?
Its value is 100%.

Which pest or weed control at 25 % strength ([1]; beads, 20 uL, 25% w/w in hexane:methanol (1:1), average of 3 replicates x 3 observation periods, read-out: % Repellency (% R), Overall Average) does the source give for `CCCC(=O)c1ccco1` [Compound 086, 2-butyrylfuran] here?
Its pest or weed control at 25 % strength is greater than 80%.

For `CC(=O)OCc1ccco1` [Compound 084, Furfuryl acetate], which pest or weed control at 25 % strength [1, 4] is on record?
Its pest or weed control at 25 % strength is 61%.

For `CCCC(=O)CCC` [Compound 051, 4-heptanone], which pest or weed control at 25 % strength [1, 4] is on record?
Its pest or weed control at 25 % strength is greater than 80%.

How did the pest or weed control at 25 % strength [1, 4] turn out when `CC(=O)C(C)C(C)C(C)=O` (stereo not shown) [Compound 025, 3,4-dimethyl-2,5-hexanedione] was run?
Its pest or weed control at 25 % strength is 77%.

With `CCOC(=O)c1ccco1` [Compound 085, Ethyl 2-furoate] as the compound, how does the pest or weed control at 25 % strength [1, 4] read?
Its pest or weed control at 25 % strength is 73%.

With `CCCC(=O)/C=C/C=O` [Compound 003, 4-oxo-2-heptenal] as the compound, how does the pest or weed control at 5 % strength [1, 5] read?
Its pest or weed control at 5 % strength is greater than 80%.

What does the source list for `CCC(=O)OCC=O` [Compound 008, 2-oxoethyl propionate]?
pest or weed control at 5 % strength [1, 5]: 27%; pest or weed control at 5 % strength [1, 6]: 12%; pest or weed control at 5 % strength [1, 7]: 53%; pest or weed control at 5 % strength [1, 8]: 17%; % Repellency, At least One Average >50% ([1]; gauze, 50 uL, 5% w/v in hexane): 53%

For `CCC(O)c1ccco1` (stereo not shown) [Compound 075, 1-(furan-2-yl) propan-1-ol], which pest or weed control at 1 % [1, 9] is on record?
Its pest or weed control at 1 % is 79%.

`CCC(=O)NCCO` [Compound 018, N-(2-hydroxyethyl) propionamide] was tested. Which pest or weed control at 25 % strength [1, 4] did it give?
The pest or weed control at 25 % strength was 50%.

What about the pest or weed control at 25 % strength ([1]; observation period T1, beads, 20 uL, 25% w/w in hexane, read-out: % Repellency T1 (average of 3 repetitions)) of the same compound?
Its pest or weed control at 25 % strength is 69%.

And the pest or weed control at 25 % strength ([1]; observation period T2, beads, 20 uL, 25% w/w in hexane, read-out: % Repellency T2 (average of 3 repetitions))?
Its pest or weed control at 25 % strength is 69%.

What about the pest or weed control at 25 % strength ([1]; observation period T3, beads, 20 uL, 25% w/w in hexane, read-out: % Repellency T3 (average of 3 repetitions)) of the same compound?
The pest or weed control at 25 % strength was 11%.

And the “% Repellency, At least One Average >50%” value ([1]; beads, 20 uL, 25% w/w in hexane)?
Its value is 69%.

What does the source list for `CCCC(=O)CC` [Compound 026, 3-Hexanone]?
pest or weed control at 5 % strength [1, 5]: 15%; pest or weed control at 5 % strength ([1]; gauze, 50 uL, 5% w/v in hexane, best single observation (one repetition, one time), read-out: % Repellency, At least One Time >50%): 100%; pest or weed control at 5 % strength [1, 6]: 44%; pest or weed control at 5 % strength [1, 7]: 37%; pest or weed control at 5 % strength [1, 8]: -36%

With `CCC(=O)/C=C/C(=O)CC` [Compound 067, (E)-oct-4-ene-3,6-dione] as the compound, how does the pest or weed control at 5 % strength ([1]; gauze, 50 uL, 5% w/v in hexane:methanol (1:1), average of 3 replicates x 3 observation periods, read-out: % Repellency (% R), Overall Average) read?
The pest or weed control at 5 % strength was greater than 80%.

`CCCCCCCCCCC(C)=O` [Compound 061, 2-dodecanone] was tested. Which pest or weed control at 5 % strength [1, 5] did it give?
The pest or weed control at 5 % strength was greater than 80%.

For `C=CC(O)c1ccco1` (stereo not shown) [Compound 078, 2-Furanmethanol, a-ethenyl-], which pest or weed control at 25 % strength [1, 4] is on record?
Its pest or weed control at 25 % strength is greater than 80%.

How did the pest or weed control at 5 % strength [1, 5] turn out when `C=CCNC(=O)CC` [Compound 043, N-allylpropionamide] was run?
Its pest or weed control at 5 % strength is 59%.

For `CCCCC(=O)/C=C/CO` [Compound 041, (E)-1-hydroxyoct-2-en-4-one], which pest or weed control at 5 % strength [1, 5] is on record?
The pest or weed control at 5 % strength was greater than 80%.

For `CCC(=O)c1ccco1` [Compound 014, 1-(furan-2-yl)propan-1-one], which pest or weed control at 25 % strength [1, 4] is on record?
The pest or weed control at 25 % strength was greater than 80%.

What about the “% R (Overall Average)” value [1] of the same compound?
Its value is 71%.

For `CCOC(=O)CCC(=O)O` [Compound 055, Mono-ethyl succinate], which “% Repellency (% R), Overall Average” value [3] is on record?
Its value is 73%.

Which pest or weed control at 1 % [1, 9] does the source give for `CN(C)C(=O)CCC(=O)O` [Compound 053, 4-(Dimethylamino)-4-Oxobutanoic acid] here?
The pest or weed control at 1 % was 52%.

Which pest or weed control at 5 % strength [1, 5] does the source give for `CC(=O)/C=C/C=O` [Compound 001, 4-oxo-2-pentenal] here?
Its pest or weed control at 5 % strength is 57%.

With `CCOC(=O)/C=C(\C)C=O` [Compound 057, Ethyl 3-methyl-4-oxocrotonate] as the compound, how does the pest or weed control at 25 % strength [1, 4] read?
Its pest or weed control at 25 % strength is greater than 80%.

How did the pest or weed control at 5 % strength [1, 5] turn out when `CCC(=O)/C=C/C(C)O` (stereo not shown) [Compound 042, (E)-6-hydroxyhept-4-en-3-one] was run?
Its pest or weed control at 5 % strength is 76%.

`CCC(=O)N(C)CC(OC)OC` [Compound 049, N-(2,2-dimethoxyethyl)-N-methylpropionamide] was tested. Which pest or weed control at 1 % [1, 9] did it give?
The pest or weed control at 1 % was 78%.
